Results reported in patent US5616684A, “Cyclic peptides and use thereof” (priority 1991, dated 1997).
Non-standard residues stand in square brackets, D forms with d. Residues, ends and D or L forms follow the SMILES beside them. *: point of attachment. NMeW = CN[C@@H](Cc1c[nH]c2ccccc12)C(=O)O; NMeF = CN[C@@H](Cc1ccccc1)C(=O)O; dTle = CC(C)(C)[C@@H](N)C(=O)O; NMeL = CN[C@@H](CC(C)C)C(=O)O; X3 = O=C(Cc1c[nH]c2ccccc12)*; Orn = NCCC[C@H](N)C(=O)O; PhAc = O=C(Cc1ccccc1)*; Sar = CNCC(=O)O

Experiments:
[1] = target: T1, endothelin receptor A (ETA) (Sus scrofa, UniProt Q29010); test: Assay of Affinity for Receptor (1): Binding Activity on ETA Receptor; design: key to Binding Activity on ET Receptor (R. act.) ETA: relative binding activity; reference cyclic pentapeptide = 1.0; settings: specific activity, binding activity of cyclo[-D-Glu-Ala-D-aIle-Leu-D-Trp-] taken as 1.0; porcine heart membrane fraction, 125I-labeled endothelin-1, 25° C., 1 hour
T1 construct: A membrane fraction prepared from the porcine heart; from tissue; host or cells: porcine heart membrane fraction
T1 sequence (Q29010 21-427): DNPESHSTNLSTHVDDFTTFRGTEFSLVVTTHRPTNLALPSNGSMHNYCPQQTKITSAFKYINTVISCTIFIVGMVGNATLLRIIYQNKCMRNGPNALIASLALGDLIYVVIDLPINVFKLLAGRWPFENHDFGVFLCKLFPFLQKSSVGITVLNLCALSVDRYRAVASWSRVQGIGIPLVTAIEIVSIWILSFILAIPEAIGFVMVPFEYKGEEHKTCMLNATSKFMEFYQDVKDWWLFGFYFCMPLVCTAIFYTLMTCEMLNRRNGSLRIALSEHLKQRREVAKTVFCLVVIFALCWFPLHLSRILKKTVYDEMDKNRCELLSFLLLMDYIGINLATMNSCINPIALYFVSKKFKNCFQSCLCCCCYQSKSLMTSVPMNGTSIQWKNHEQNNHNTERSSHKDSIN
Protocol: Assay of Affinity for Receptor (1) . . . Binding Activity on ETA Receptor
A membrane fraction prepared from the porcine heart was diluted to 0.15 mg/ml by using a buffer solution for assay, and 100 μl of the resulting suspension of the membrane fraction was poured into each assay tube to use for assay. To this suspension of the membrane fraction was added 2 μl of 5 nM ^125 I-labeled endothelin-1 solution. Further, 3 μl of a test peptide solution was added thereto, followed by incubation at a temperature of 25° C. for 1 hour. Then, the resulting suspension was diluted with 900 μl of the buffer solution for assay cooled with ice, and thereafter separated into a supernatant and a precipitate by centrifugation at 12,000×g for 10 minutes. Cell membranes and an endothelin receptor A (ETA) embedded therein were contained in the precipitate, and radioactive iodine-labeled endothelin combined with the receptor was also recovered in the precipitate. Accordingly, the amount of radioactive iodine-labeled endothelin combined with the endothelin receptor A (ETA) was determined by measuring the amount of radioactive iodine contained in the precipitate with a gamma-ray counter. The cyclic pentapeptide described in Japanese Patent Application No. 2-413828/1990, cyclo[-D-Glu-Ala-D-aIle-Leu-D-Trp-], was used as a control compound. The numerical value of ETA shown in Table 1 is the value of specific activity, taking the binding activity of this cyclic pentapeptide on the receptor A as 1.0. The binding activity (IC50) of this cyclic pentapeptide on the ETA receptor is 2×10^-6 M.

[2] = tested on: ETB receptor (guinea pig kidney crude receptor membrane fraction); test: ETB Radio Receptor Assay *2; assay type: binding; settings: relative activity (Example 8 given as 100), 125I-endothelin-1, 37° C., 90 minutes
Protocol: ETB Radio Receptor Assay *2
In the endothelin radio receptor assay, guinea pigs' kidneys were used. Guinea pigs (Std Hartrey, male 250 g, Japan SLC Ltd.) were made to have a cerebral concussion and sacrificed by bleeding from carotid arteries to pick up the kidneys and removed fat therefrom to prepare the kidneys. The obtained kidneys were sliced and homogenized by politron homogenizer in 20 ml of 50 mM Tris-HCl buffer [pH 7.4; 20 mM NaHCO3, 0.1 mM PMSF (Phenylmethylsulfonyl Fluoride), 1 mM EDTA (Ethylenediaminetetraacetic acid)] per one kidney. The homogenized kidney was applied to a centrifugation at 1,000×g for 15 minutes and the supernatant was further applied to a centrifugation for 20 minutes at 30,000×g. The resulting precipitate was twice washed with 50 mM Tris-HCl buffer (pH 7.4) containing 0.1 mM PMSF, 1 mM EDTA. The resultant was stored at -80 ° C. as a crude receptor membrane fraction and was used as the suspension in the following buffer when necessary.
740 Bq of ^125 I-endothelin-1 (81.4 TBq/mmol, Du Pont, USA) as a radio ligand, the crude membrane fraction (2.1 μg protein) and samples were added to the following buffer. The reaction was performed at 37° C., for 90 minutes in 0.2 ml of the buffer [50 mM Tris-HCl buffer (pH 7.4) containing 0.1 mM PMSF, 1 mM EDTA, 0.2% bovine serum albumin].
The reaction was stopped by fast filtration on a glass filter (GF/B, Wattman, USA) by Cell Harvestor (290 PHD, Cambridge-Technology, Great Britain), and the filter was three times washed with 50 mM Tris-HCl buffer (pH 7.4). Radio activity remained on the filter was assayed by a gamma counter.

Molecule	Binding Activity on ET Receptor (R. act.) ETA [1]	Binding Activity on ET Receptor (R. act.) ET8 *2 [2]
CC(C)C[C@@H]1NC(=O)[C@@H](CC(C)C)NC(=O)[C@H](CC(=O)O)NC(=O)[C@H](CC(C)C)N(C)C(=O)[C@@H](CC(=O)O)NC(=O)[C@@H](Cc2c[nH]c3ccccc23)NC1=O [Example 47, Cyclo[--D--Asp--N--MeLeu--Asp--D--Leu--Leu--D--Trp--]] (cyclo(D[dL]L[dW][dD][NMeL]))	6.8	17
CC(C)C[C@@H]1NC(=O)[C@@H](CC(C)C)NC(=O)[C@H](CC(=O)O)NC(=O)[C@H](Cc2ccccc2)NC(=O)[C@@H](CC(=O)O)NC(=O)[C@@H](Cc2c[nH]c3ccccc23)NC1=O [Example 19, Cyclo[--D--Asp--Phe--Asp--D--Leu--Leu--D--Trp--]] (cyclo(D[dL]L[dW][dD]F))	8.3	7.1
CC(C)C[C@@H]1NC(=O)[C@@H](CC(C)C)NC(=O)[C@H](Cc2c[nH]c3ccccc23)NC(=O)[C@H](CC(=O)O)NC(=O)[C@@H](CC(=O)O)NC(=O)[C@@H](Cc2c[nH]c3ccccc23)NC1=O [Example 33, Cyclo[--D--Asp--Asp--Trp--D--Leu--Leu--D--Trp--]] (cyclo(DW[dL]L[dW][dD]))	2.9	5.6
CC(C)C[C@@H]1NC(=O)[C@@H](CC(C)C)NC(=O)[C@@H]2CCCN2C(=O)[C@H](CC(=O)O)NC(=O)[C@@H](CC(=O)O)NC(=O)[C@@H](Cc2c[nH]c3ccccc23)NC1=O [Example 30, Cyclo[--D--Asp--Asp--Pro--D--Leu--Leu--D--Trp--]] (cyclo(DP[dL]L[dW][dD]))	4.4	9.1
CC(C)C[C@@H]1NC(=O)[C@@H](CC(C)C)NC(=O)[C@H](CC(=O)O)NC(=O)[C@H]2CCCN2C(=O)[C@@H](CC(=O)O)NC(=O)[C@@H](Cc2c[nH]c3ccccc23)NC1=O [Example 24, Cyclo[--D--Asp--D--Pro--Asp--D--Leu--Leu--D--Trp--]] (cyclo(D[dL]L[dW][dD][dP]))	1.7	
CC(C)C[C@@H]1NC(=O)[C@@H](CC(C)C)NC(=O)[C@H](CC(=O)O)NC(=O)[C@H](CC(C)C)NC(=O)[C@@H](CC(=O)O)NC(=O)[C@@H](Cc2c[nH]c3ccccc23)NC1=O [Example 18, Cyclo[--D--Asp--Leu--Asp--D--Leu--Leu--D--Trp--]] (cyclo(D[dL]L[dW][dD]L))	13	2.2
CC(C)C[C@@H]1NC(=O)[C@@H](CC(C)C)NC(=O)[C@H](CC(=O)O)NC(=O)[C@H](CCCNC(=O)Cc2c[nH]c3ccccc23)NC(=O)[C@@H](CC(=O)O)NC(=O)[C@@H](Cc2c[nH]c3ccccc23)NC1=O [Example 82, cyclo[-D-Asp-Orn(COCH2 -Ind)-Asp-D-Leu-Leu-D-Trp-]] (cyclo(D[dL]L[dW][dD][Orn](X3)))	240	500
Cyclo[--D--Asp--D,L-Tic--Asp--D--Leu--Leu--D--Trp--] [Example 86]	38	240
CC(C)C[C@@H]1NC(=O)[C@@H](CC(C)C)NC(=O)[C@H](CC(=O)O)NC(=O)[C@H](C(C)C)NC(=O)[C@@H](CC(=O)O)NC(=O)[C@@H](Cc2c[nH]c3ccccc23)NC1=O [Example 17, Cyclo[--D--Asp--Val--Asp--D--Leu--Leu--D--Trp--]] (cyclo(D[dL]L[dW][dD]V))	3.7	22
CC(C)C[C@@H]1NC(=O)[C@@H](CC(C)C)NC(=O)[C@H](CC(=O)O)NC(=O)CN(C)C(=O)[C@@H](CC(=O)O)NC(=O)[C@@H](Cc2c[nH]c3ccccc23)NC1=O [Example 46, Cyclo[--D--Asp--Sar--Asp--D--Leu--Leu--D--Trp--]] (cyclo(D[dL]L[dW][dD][Sar]))	8.1	75
CC(C)C[C@@H]1NC(=O)[C@@H](CC(C)C)NC(=O)[C@H](CC(=O)O)NC(=O)[C@H](CCCNC(=O)Cc2ccccc2)NC(=O)[C@@H](CC(=O)O)NC(=O)[C@@H](Cc2c[nH]c3ccccc23)NC1=O [Example 80, cyclo[-D-Asp-Orn(COCH2 Ph)-AsP-D-Leu-Leu-D-Trp-]] (cyclo(D[dL]L[dW][dD][Orn](PhAc)))	260	380

More lines, now with the values ahead:

Binding Activity on ET Receptor (R. act.) ETA [1]	Binding Activity on ET Receptor (R. act.) ET8 *2 [2]	Molecule
2.7	13	CC(C)C[C@@H]1NC(=O)[C@@H](CC(C)C)NC(=O)[C@H](CC(=O)O)NC(=O)[C@H](Cc2ccccc2)N(C)C(=O)[C@@H](CC(=O)O)NC(=O)[C@@H](Cc2c[nH]c3ccccc23)NC1=O [Example 48, Cyclo[--D--Asp--N--MePhe--Asp--D--Leu--Leu--D--Trp--]] (cyclo(D[dL]L[dW][dD][NMeF]))
15	43	CC(C)C[C@@H]1NC(=O)[C@@H](CC(C)C)NC(=O)[C@H](CC(=O)O)NC(=O)[C@H](Cc2c[nH]cn2)NC(=O)[C@@H](CC(=O)O)NC(=O)[C@@H](Cc2c[nH]c3ccccc23)NC1=O [Example 83, Cyclo[--D--Asp--His--Asp--D--Leu--Leu--D--Trp--]] (cyclo(D[dL]L[dW][dD]H))
64	460	CC(C)C[C@@H]1NC(=O)[C@@H](C(C)(C)C)NC(=O)[C@H](CC(=O)O)NC(=O)[C@H](Cc2c[nH]c3ccccc23)NC(=O)[C@@H](CC(=O)O)NC(=O)[C@@H](Cc2c[nH]c3ccccc23)NC1=O [Example 53, cyclo[-D-Asp-Trp-Asp-D-tLeu-Leu-D-Trp-]] (cyclo(D[dTle]L[dW][dD]W))
9.1	30	CC(C)C[C@@H]1NC(=O)[C@@H](CC(C)C)NC(=O)[C@H](CC(=O)O)NC(=O)[C@H](Cc2c[nH]c3ccccc23)N(C)C(=O)[C@@H](CC(=O)O)NC(=O)[C@@H](Cc2c[nH]c3ccccc23)NC1=O [Example 67, Cyclo[--D--Asp--N--MeTrp--Asp--D--Leu--Leu--D--Trp--]] (cyclo(D[dL]L[dW][dD][NMeW]))
110	330	CC(C)C[C@@H]1NC(=O)[C@@H](CC(C)C)NC(=O)[C@H](CC(=O)O)NC(=O)[C@H](Cc2c[nH]c3ccccc23)NC(=O)[C@@H](CC(=O)O)NC(=O)[C@@H](Cc2cn(C)c3ccccc23)NC1=O [Example 95, Cyclo[--D--Asp--Trp--Asp--D--Leu--Leu--D--Trp(Me)--]]
